# Measurements as given in patent US9023789B2, “Amylin analogs and pharmaceutical compositions thereof” (Novo Nordisk A/S, priority 2012, dated 2015).
# Where two headings read alike, the source gives them in different places. Numbered stars: 1 amine (or outer) side, 2 acyl side, 3 side chain; on linkers, the order of the positions; unused ones are H or OH. Bridge positions count the residues as written; N and C are the ends. Side chains are listed from the residue outwards. Peptide text beside a SMILES is read from it. * marks the point of attachment. C20 diacid = O=C(O)CCCCCCCCCCCCCCCCCCC(=O)*; γGlu = O=C(O)[C@H](CCC(=O)[*:2])N[*:1]
# Tests used:
# [1] = system: Sprague Dawley (SD) rats; experiment: ASSAY (I) efficacy testing on appetite (food intake) using an ad libitum fed rat model; type: in vivo; settings: rat
# Procedure, shortened: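 Individual food consumption was logged each hour up to 7 h and again at 24 h, occasionally 48 h, with Grubbs-test outliers removed. Each 200–250 g Sprague Dawley rat, free-feeding in its home cage under reversed lighting, received a single ip, po or sc dose of 0.01–3 mg/kg at lights-off, alongside a vehicle group.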
# [2] = ASSAY (IV) determination of solubility; type: physicochemical
# Procedure, shortened: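 Solubility measured by UPLC of supernatant after centrifugation, following 18 h at room temperature. Peptide ([…] in water) was diluted 1:1 into 100 mM glycylglycine (pH 3.0, 4.0, 5.0) or bistrispropane (pH 6.0-8.0).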
# [3] = ASSAY (III) ThT fibrillation assay for physical stability; type: physicochemical
# Procedure, shortened: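 Physical stability scored by ThT fluorescence (444 nm excitation, 485 nm emission) tracked every 20 min during 37 °C incubation with 960 rpm shaking, ThT at 1 μM final. Values are replicate means with SD at chosen times; HPLC against pramlintide standard gives initial and post-assay soluble concentrations.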
# [4] = bistrispropane buffer, pH 6.5, read-out: Solubility pH 6.5 Concentration
# [5] = bistrispropane buffer, pH 7.5, read-out: Solubility pH 7.5 Concentration
# [6] = bistrispropane buffer, pH 6.0, read-out: Solubility pH 6.0 Concentration
# [7] = bistrispropane buffer, pH 7.0, read-out: Solubility pH 7.0 Concentration
# [8] = bistrispropane buffer, pH 8.0, read-out: Solubility pH 8.0 Concentration
# [9] = glycylglycine buffer, pH 3.0, read-out: Solubility pH 3.0 Concentration
# [10] = glycylglycine buffer, pH 4.0, read-out: Solubility pH 4.0 Concentration
# [11] = glycylglycine buffer, pH 5.0, read-out: Solubility pH 5.0 Concentration
SMILES,Food intake reduction 0-24 h 30 nmol/kg (%) ([1]; 0-24 h),Food intake reduction 24-48 h 30 nmol/kg (%) ([1]; 24-48 h),"solubility at 18 h [2, 4]","solubility at 18 h [2, 5]","solubility at 18 h [2, 6]","solubility at 18 h [2, 7]","solubility at 18 h [2, 8]","solubility at 18 h [2, 9]","solubility at 18 h [2, 10]","solubility at 18 h [2, 11]",ThT pH 4.0 lag time (h) [3],"Food intake reduction 0-24 h 3 nmol/kg (%) ([1]; 3 nmol/kg, 0-24 h)","Food intake reduction 24-48 h 3 nmol/kg (%) ([1]; 3 nmol/kg, 24-48 h)"
CC[C@H](C)[C@H](NC(=O)[C@H](C)NC(=O)CNC(=O)[C@H](Cc1ccccc1)NC(=O)[C@H](CC(N)=O)NC(=O)[C@@H]1CCCN1C(=O)[C@H](CO)NC(=O)[C@H](CO)NC(=O)[C@H](Cc1c[nH]cn1)NC(=O)[C@H](CCCNC(=N)N)NC(=O)[C@H](CC(C)C)NC(=O)[C@H](Cc1ccccc1)NC(=O)[C@H](CC(N)=O)NC(=O)[C@H](C)NC(=O)[C@H](CC(C)C)NC(=O)[C@H](CCCNC(=N)N)NC(=O)[C@H](CCC(N)=O)NC(=O)[C@@H](NC(=O)[C@H](C)NC(=O)[C@@H]1CSSC[C@H](NC(=O)[C@H](CCCNC(=N)N)NC(=O)CNC(=O)CC[C@H](NC(=O)CCCCCCCCCCCCCCCCCCC(=O)O)C(=O)O)C(=O)N[C@@H](CC(N)=O)C(=O)N[C@@H]([C@@H](C)O)C(=O)N[C@@H](C)C(=O)N[C@@H]([C@@H](C)O)C(=O)N1)[C@@H](C)O)C(=O)N1CCC[C@H]1C(=O)N[C@@H](CO)C(=O)N[C@@H](CO)C(=O)N[C@H](C(=O)N[C@@H](CC(N)=O)C(=O)N[C@H](C(=O)NCC(=O)N[C@@H](CO)C(=O)N[C@@H](Cc1c[nH]cn1)C(=O)N[C@H](C(=O)N[C@@H](Cc1ccc(O)cc1)C(N)=O)[C@@H](C)O)C(C)C)[C@@H](C)O [Example 47] ({C20 diacid-γGlu}-GRCNTATCATQRLANFLRHSSPNFGAIPSSTNVGSHTY-NH2; disulfide 3-8),51%,0%,≥ 200 µM,50 µM,≥ 200 µM,≥ 200 µM,68 µM,≥ 200 µM,≥ 200 µM,≥ 200 µM,45 h,,
CC[C@H](C)[C@H](NC(=O)[C@H](C)NC(=O)CNC(=O)[C@H](Cc1ccccc1)NC(=O)[C@H](CC(N)=O)NC(=O)[C@@H]1CCCN1C(=O)[C@H](CO)NC(=O)[C@H](CO)NC(=O)[C@H](Cc1c[nH]cn1)NC(=O)[C@H](CCCNC(=N)N)NC(=O)[C@H](CC(C)C)NC(=O)[C@H](Cc1ccccc1)NC(=O)[C@H](CC(N)=O)NC(=O)[C@H](C)NC(=O)[C@H](CC(C)C)NC(=O)[C@H](CCCNC(=N)N)NC(=O)[C@H](CCC(N)=O)NC(=O)[C@@H](NC(=O)[C@H](C)NC(=O)[C@@H]1CSSC[C@H](NC(=O)[C@H](CCCCN)NC(=O)COCCOCCNC(=O)COCCOCCNC(=O)CC[C@H](NC(=O)CCCCCCCCCCCCCCCCCCC(=O)O)C(=O)O)C(=O)N[C@@H](CC(N)=O)C(=O)N[C@@H]([C@@H](C)O)C(=O)N[C@@H](C)C(=O)N[C@@H]([C@@H](C)O)C(=O)N1)[C@@H](C)O)C(=O)N1CCC[C@H]1C(=O)N[C@@H](CO)C(=O)N[C@@H](CO)C(=O)N[C@H](C(=O)N[C@@H](CC(N)=O)C(=O)N[C@H](C(=O)NCC(=O)N[C@@H](CO)C(=O)N[C@@H](CC(N)=O)C(=O)N[C@H](C(=O)N[C@@H](Cc1ccc(O)cc1)C(N)=O)[C@@H](C)O)C(C)C)[C@@H](C)O [Example 24],22%,1%,≥ 200 µM,≥ 200 µM,≥ 200 µM,≥ 200 µM,≥ 200 µM,≥ 200 µM,≥ 200 µM,≥ 200 µM,34 h,,
CC[C@H](C)[C@H](NC(=O)[C@H](C)NC(=O)CNC(=O)[C@H](Cc1ccccc1)NC(=O)[C@H](CC(N)=O)NC(=O)[C@@H]1CCCN1C(=O)[C@H](CO)NC(=O)[C@H](CO)NC(=O)[C@H](Cc1c[nH]cn1)NC(=O)[C@H](CCCNC(=N)N)NC(=O)[C@H](CC(C)C)NC(=O)[C@H](Cc1ccccc1)NC(=O)[C@H](CC(N)=O)NC(=O)[C@H](C)NC(=O)[C@H](CC(C)C)NC(=O)[C@H](CCCNC(=N)N)NC(=O)[C@H](CCC(N)=O)NC(=O)[C@@H](NC(=O)[C@H](C)NC(=O)[C@@H]1CSSC[C@H](NC(=O)[C@@H](N)CCCCNC(=O)CC[C@H](NC(=O)CCCCCCCCCCCCCCCCC(=O)O)C(=O)O)C(=O)N[C@@H](CC(N)=O)C(=O)N[C@@H]([C@@H](C)O)C(=O)N[C@@H](C)C(=O)N[C@@H]([C@@H](C)O)C(=O)N1)[C@@H](C)O)C(=O)N1CCC[C@H]1C(=O)N[C@@H](CO)C(=O)N[C@@H](CO)C(=O)N[C@H](C(=O)N[C@@H](CC(N)=O)C(=O)N[C@H](C(=O)NCC(=O)N[C@@H](Cc1c[nH]cn1)C(=O)N[C@@H](CC(N)=O)C(=O)N[C@H](C(=O)N[C@@H](Cc1ccc(O)cc1)C(N)=O)[C@@H](C)O)C(C)C)[C@@H](C)O [Example 113],48%,2%,≥ 200 µM,154 µM,≥ 200 µM,,96 µM,≥ 200 µM,≥ 200 µM,≥ 200 µM,45 h,,
CC[C@H](C)[C@H](NC(=O)[C@H](C)NC(=O)CNC(=O)[C@H](Cc1ccccc1)NC(=O)[C@H](CC(N)=O)NC(=O)[C@@H]1CCCN1C(=O)[C@H](CO)NC(=O)[C@H](CO)NC(=O)[C@H](Cc1c[nH]cn1)NC(=O)[C@H](CCCNC(=N)N)NC(=O)[C@H](CC(C)C)NC(=O)[C@H](Cc1ccccc1)NC(=O)[C@H](CC(=O)O)NC(=O)[C@H](C)NC(=O)[C@H](CC(C)C)NC(=O)[C@H](CCCNC(=N)N)NC(=O)[C@H](CCC(N)=O)NC(=O)[C@@H](NC(=O)[C@H](C)NC(=O)[C@@H]1CSSC[C@H](NC(=O)[C@@H](N)CCCCNC(=O)CC[C@H](NC(=O)CC[C@H](NC(=O)CCCCCCCCCCCCCCCCCCC(=O)O)C(=O)O)C(=O)O)C(=O)N[C@@H](CC(N)=O)C(=O)N[C@@H]([C@@H](C)O)C(=O)N[C@@H](C)C(=O)N[C@@H]([C@@H](C)O)C(=O)N1)[C@@H](C)O)C(=O)N1CCC[C@H]1C(=O)N[C@@H](CO)C(=O)N[C@@H](CO)C(=O)N[C@H](C(=O)N[C@@H](CC(N)=O)C(=O)N[C@H](C(=O)NCC(=O)N[C@@H](CO)C(=O)N[C@@H](CC(=O)O)C(=O)N[C@H](C(=O)N[C@@H](Cc1ccc(O)cc1)C(N)=O)[C@@H](C)O)C(C)C)[C@@H](C)O [Example 2] (H-K([γGlu-γGlu-C20 diacid])CNTATCATQRLADFLRHSSPNFGAIPSSTNVGSDTY-NH2; disulfide 2-7; N-terminus assumed),72%,62%,190 µM,≥ 200 µM,≥ 200 µM,≥ 200 µM,≥ 200 µM,≥ 200 µM,≥ 200 µM,≥ 200 µM,10 h,39%,10%
CC[C@H](C)[C@H](NC(=O)[C@H](C)NC(=O)CNC(=O)[C@H](Cc1ccccc1)NC(=O)[C@H](CC(N)=O)NC(=O)[C@@H]1CCCN1C(=O)[C@H](CO)NC(=O)[C@H](CO)NC(=O)[C@H](Cc1c[nH]cn1)NC(=O)[C@H](CCCNC(=N)N)NC(=O)[C@H](CC(C)C)NC(=O)[C@H](Cc1ccccc1)NC(=O)[C@H](Cc1c[nH]cn1)NC(=O)[C@H](C)NC(=O)[C@H](CC(C)C)NC(=O)[C@H](CCCNC(=N)N)NC(=O)[C@H](CCC(N)=O)NC(=O)[C@@H](NC(=O)[C@H](C)NC(=O)[C@@H]1CSSC[C@H](NC(=O)[C@@H](N)CCCCNC(=O)CC[C@H](NC(=O)CCCCCCCCCCCCCCCCCCC(=O)O)C(=O)O)C(=O)N[C@@H](CC(N)=O)C(=O)N[C@@H]([C@@H](C)O)C(=O)N[C@@H](C)C(=O)N[C@@H]([C@@H](C)O)C(=O)N1)[C@@H](C)O)C(=O)N1CCC[C@H]1C(=O)N[C@@H](CO)C(=O)N[C@@H](CO)C(=O)N[C@H](C(=O)N[C@@H](CC(N)=O)C(=O)N[C@H](C(=O)NCC(=O)N[C@@H](Cc1c[nH]cn1)C(=O)N[C@@H](CC(N)=O)C(=O)N[C@H](C(=O)N[C@@H](Cc1ccc(O)cc1)C(N)=O)[C@@H](C)O)C(C)C)[C@@H](C)O [Example 81] (H-K([γGlu-C20 diacid])CNTATCATQRLAHFLRHSSPNFGAIPSSTNVGHNTY-NH2; disulfide 2-7; N-terminus assumed),40%,3%,≥ 200 µM,≥ 200 µM,≥ 200 µM,≥ 200 µM,≥ 200 µM,≥ 200 µM,≥ 200 µM,≥ 200 µM,45 h,,
